From PubChem BioAssay AID330 (DTP/NCI, 2004)
“And” between values parts separate entries of the source, which are not always exact repeats. Identical values can stand only once. Inconclusive results and toxic doses are left out.

Tested on: P388 leukemia ip, CD2F1 mice, survival T/C
Experiment: NCI In Vivo Anticancer Drug Screen. Data for tumor model P388 Leukemia (intraperitoneal) in CD2F1 (CDF1) mice
Conditions: endpoint: median survival time, higher = longer survival
In short: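 Mice carrying the transplanted tumor received test compound or vehicle. Survival was recorded in each group, and the value is the treated-group measurement divided by that of the vehicle-treated control group.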

[1] = dose: 3.13 mg/kg/injection, schedule: Q01DX009 (ip), vehicle: saline with Tween-80
[2] = dose: 6.25 mg/kg/injection, schedule: Q01DX009 (ip), vehicle: saline with Tween-80
[3] = dose: 12.5 mg/kg/injection, schedule: Q01DX009 (ip), vehicle: saline with Tween-80
[4] = dose: 25.0 mg/kg/injection, schedule: Q01DX009 (ip), vehicle: saline with Tween-80
[5] = dose: 50.0 mg/kg/injection, schedule: Q01DX009 (ip), vehicle: saline with Tween-80
[6] = dose: 50.0 mg/kg/injection, schedule: Q01DX005 (ip), vehicle: saline with Tween-80
[7] = dose: 100.0 mg/kg/injection, schedule: Q01DX005 (ip), vehicle: saline with Tween-80
[8] = dose: 200.0 mg/kg/injection, schedule: Q01DX005 (ip), vehicle: saline with Tween-80
[9] = dose: 50.0 mg/kg/injection, schedule: Q01DX005 (ip), vehicle: Klucel (hydroxypropylcellulose) (HPC)
[10] = dose: 100.0 mg/kg/injection, schedule: Q01DX005 (ip), vehicle: Klucel (hydroxypropylcellulose) (HPC)
[11] = dose: 200.0 mg/kg/injection, schedule: Q01DX005 (ip), vehicle: Klucel (hydroxypropylcellulose) (HPC)

## O=C(O)c1ccccc1C(=O)c1ccc(CBr)cc1
dose: 1.56 mg/kg/injection, schedule: Q01DX009 (ip), vehicle: saline with Tween-80
  T/C: 109 % of control
[1]
  T/C: 109 % of control
[2]
  T/C: 109 % of control and 113 % of control
dose: 6.25 mg/kg/injection, schedule: Q04DX003 (ip), vehicle: saline with Tween-80
  T/C: 91 % of control
dose: 12.5 mg/kg/injection, schedule: Q04DX003 (ip), vehicle: saline with Tween-80
  T/C: 95 % of control
dose: 25.0 mg/kg/injection, schedule: Q04DX003 (ip), vehicle: saline with Tween-80
  T/C: 108 % of control

## CSc1nc(=S)c2[nH]c(C)nc2[nH]1
dose: 6.25 mg/kg/injection, schedule: Q04DX003 (ip), vehicle: saline
  T/C: 96 % of control
dose: 12.5 mg/kg/injection, schedule: Q04DX003 (ip), vehicle: saline
  T/C: 96 % of control
dose: 25.0 mg/kg/injection, schedule: Q04DX003 (ip), vehicle: saline
  T/C: 100 % of control
dose: 50.0 mg/kg/injection, schedule: Q04DX003 (ip), vehicle: saline
  T/C: 100 % of control

## CCN(CC)c1ccc2c(-c3ccccc3C(=O)O)c3ccc(=[N+](CC)CC)cc-3oc2c1
dose: 5.0 mg/kg/injection, schedule: Q01DX009 (ip), vehicle: saline with Tween-80
  T/C: 104 % of control
dose: 10.0 mg/kg/injection, schedule: Q01DX009 (ip), vehicle: saline with Tween-80
  T/C: 104 % of control
dose: 20.0 mg/kg/injection, schedule: Q01DX009 (ip), vehicle: saline with Tween-80
  T/C: 100 % of control

## [Ag].[Ag].[NH-]S(=O)(=O)c1ccc(N=Nc2cc(N=Nc3ccc(S([NH-])(=O)=O)cc3)c3c(NC(=O)C(Cl)Cl)cccc3c2OC(=O)C(Cl)Cl)cc1.[c-]1nccs1.[c-]1nccs1
[3]
  T/C: 91 % of control
[4]
  T/C: 100 % of control
[5]
  T/C: 88 % of control and 93 % of control

## COC(=O)[C@H]1[C@H]2C[C@@H]3c4[nH]c5cc(OC)ccc5c4CCN3C[C@H]2C[C@@H](OC(=O)c2ccc(N)cc2)[C@@H]1OC
[6]
  T/C: 97 % of control
[7]
  T/C: 87 % of control
[8]
  T/C: 94 % of control

## CCN(CC)CCSc1c2ccccc2nc2ccccc12
dose: 3.75 mg/kg/injection, schedule: Q01DX005 (ip), vehicle: saline with Tween-80
  T/C: 110 % of control
dose: 7.5 mg/kg/injection, schedule: Q01DX005 (ip), vehicle: saline with Tween-80
  T/C: 114 % of control
dose: 15.0 mg/kg/injection, schedule: Q01DX005 (ip), vehicle: saline with Tween-80
  T/C: 107 % of control

## O=C(N/N=C/c1c(O)ccc2ccccc12)C(=O)N/N=C/c1c(O)ccc2ccccc12
dose: 12.5 mg/kg/injection, schedule: Q01DX005 (ip), vehicle: saline with Tween-80
  T/C: 97 % of control
dose: 25.0 mg/kg/injection, schedule: Q01DX005 (ip), vehicle: saline with Tween-80
  T/C: 94 % of control
[6]
  T/C: 121 % of control
[7]
  T/C: 186 % of control

## C=C(Cl)CN(CCCC(=O)O)c1ccccc1
dose: 100.0 mg/kg/injection, schedule: Q04DX003 (ip), vehicle: other
  T/C: 100 % of control
dose: 200.0 mg/kg/injection, schedule: Q04DX003 (ip), vehicle: other
  T/C: 109 % of control
dose: 400.0 mg/kg/injection, schedule: Q04DX003 (ip), vehicle: other
  T/C: 90 % of control

## NC1(C(=O)O)CCSCC1
[9]
  T/C: 101 % of control
[10]
  T/C: 102 % of control
[11]
  T/C: 90 % of control

## COc1ccc(/C=C/C(=O)c2cc(C(=O)O)c(OC)cc2OC)cc1OC
dose: 50.0 mg/kg/injection, schedule: Q01DX009 (ip), vehicle: suspension in saline
  T/C: 117 % of control and 120 % of control
dose: 100.0 mg/kg/injection, schedule: Q01DX009 (ip), vehicle: suspension in saline
  T/C: 123 % of control

## Nc1cc(-c2ccccc2)cn1-c1nnc(-c2ccc(Br)cc2)s1
dose: 100.0 mg/kg/injection, schedule: Q01DX001 (ip), vehicle: Klucel (hydroxypropylcellulose) (HPC)
  T/C: 101 % of control
dose: 200.0 mg/kg/injection, schedule: Q01DX001 (ip), vehicle: Klucel (hydroxypropylcellulose) (HPC)
  T/C: 100 % of control
dose: 400.0 mg/kg/injection, schedule: Q01DX001 (ip), vehicle: Klucel (hydroxypropylcellulose) (HPC)
  T/C: 99 % of control

## CC1=Nc2ccc(C(F)(F)F)cc2NC(=O)C1
[9]
  T/C: 100 % of control
[10]
  T/C: 99 % of control and 97 % of control
[11]
  T/C: 100 % of control and 96 % of control

## CC1=CC(=Nc2ccc(N(C)C)cc2)C=CC1=O
[1]
  T/C: 104 % of control and 115 % of control
[2]
  T/C: 107 % of control and 115 % of control
[3]
  T/C: 111 % of control and 114 % of control

## CC/C(=N\NS(=O)(=O)c1ccc(C)cc1)c1ccc(Br)cc1
dose: 100.0 mg/kg/injection, schedule: Q04DX002 (ip), vehicle: saline
  T/C: 100 % of control
dose: 200.0 mg/kg/injection, schedule: Q04DX002 (ip), vehicle: saline
  T/C: 105 % of control
dose: 400.0 mg/kg/injection, schedule: Q04DX002 (ip), vehicle: saline
  T/C: 96 % of control

## CC(=O)c1cc2c(cc1C(C)C)CC[C@H]1[C@](C)(C#N)CCC[C@]21C
dose: 50.0 mg/kg/injection, schedule: Q01DX009 (ip), vehicle: saline sonified
  T/C: 86 % of control
dose: 100.0 mg/kg/injection, schedule: Q01DX009 (ip), vehicle: saline sonified
  T/C: 90 % of control

## C=C(CC(=O)O)C(=O)O (tested in a mixture with another compound)
dose: 12.5 mg/kg/injection, schedule: Q01DX009 (ip), vehicle: saline
  T/C: 100 % of control
dose: 25.0 mg/kg/injection, schedule: Q01DX009 (ip), vehicle: saline
  T/C: 100 % of control
dose: 50.0 mg/kg/injection, schedule: Q01DX009 (ip), vehicle: saline
  T/C: 100 % of control

## O=c1c2sc3ccccc3c2ncn1/N=C/c1cccc(Cl)c1
[9]
  T/C: 96 % of control
[10]
  T/C: 97 % of control
[11]
  T/C: 88 % of control

## COc1ccc(OC)c(NC(=O)Nc2nccs2)c1
dose: 22.5 mg/kg/injection, schedule: Q01DX009 (ip), vehicle: Klucel (hydroxypropylcellulose) (HPC)
  T/C: 99 % of control
dose: 45.0 mg/kg/injection, schedule: Q01DX009 (ip), vehicle: Klucel (hydroxypropylcellulose) (HPC)
  T/C: 100 % of control
dose: 90.0 mg/kg/injection, schedule: Q01DX009 (ip), vehicle: Klucel (hydroxypropylcellulose) (HPC)
  T/C: 97 % of control
dose: 180.0 mg/kg/injection, schedule: Q01DX009 (ip), vehicle: Klucel (hydroxypropylcellulose) (HPC)
  T/C: 92 % of control

## CC(C)n1cnc2c(Cl)ncnc21
[4]
  T/C: 100 % of control
[5]
  T/C: 104 % of control
dose: 100.0 mg/kg/injection, schedule: Q01DX009 (ip), vehicle: saline with Tween-80
  T/C: 95 % of control

## Nc1c(-c2ncc[nH]2)[nH]c2cc(-c3ncc[nH]3)ccc12
dose: 15.0 mg/kg/injection, schedule: Q01DX005 (ip), vehicle: Klucel (hydroxypropylcellulose) (HPC)
  T/C: 97 % of control
dose: 30.0 mg/kg/injection, schedule: Q01DX005 (ip), vehicle: Klucel (hydroxypropylcellulose) (HPC)
  T/C: 100 % of control
dose: 60.0 mg/kg/injection, schedule: Q01DX005 (ip), vehicle: Klucel (hydroxypropylcellulose) (HPC)
  T/C: 99 % of control and 101 % of control

## Cc1ccc(-c2nc(N)[nH]c2-c2ccc(C)cc2)cc1
dose: 5.0 mg/kg/injection, schedule: Q04DX002 (ip), vehicle: saline with Tween-80
  T/C: 104 % of control
dose: 10.0 mg/kg/injection, schedule: Q04DX002 (ip), vehicle: saline with Tween-80
  T/C: 100 % of control
dose: 20.0 mg/kg/injection, schedule: Q04DX002 (ip), vehicle: saline with Tween-80
  T/C: 99 % of control

## COc1cc(OC)c(C2CC(C)(OC)Oc3cc4c(cc32)OCO4)c(OC)c1 (centres undefined)
[6]
  T/C: 103 % of control
[7]
  T/C: 97 % of control
[8]
  T/C: 90 % of control

## Clc1ccccc1C(=Nc1ccccc1)C(=Nc1ccccc1)c1ccccc1Cl
dose: 100.0 mg/kg/injection, schedule: Q04DX002 (ip), vehicle: Klucel (hydroxypropylcellulose) (HPC)
  T/C: 99 % of control
dose: 200.0 mg/kg/injection, schedule: Q04DX002 (ip), vehicle: Klucel (hydroxypropylcellulose) (HPC)
  T/C: 102 % of control
dose: 400.0 mg/kg/injection, schedule: Q04DX002 (ip), vehicle: Klucel (hydroxypropylcellulose) (HPC)
  T/C: 96 % of control

## CC1(C)NN=C(SCc2ccccc2)NC1=O
dose: 100.0 mg/kg/injection, schedule: Q04DX003 (ip), vehicle: Klucel (hydroxypropylcellulose) (HPC)
  T/C: 98 % of control
dose: 200.0 mg/kg/injection, schedule: Q04DX003 (ip), vehicle: Klucel (hydroxypropylcellulose) (HPC)
  T/C: 100 % of control
dose: 400.0 mg/kg/injection, schedule: Q04DX003 (ip), vehicle: Klucel (hydroxypropylcellulose) (HPC)
  T/C: 92 % of control

## C(=NCCC[Si]12OCCN(CCO1)CCO2)c1ccco1
[9]
  T/C: 113 % of control
[10]
  T/C: 105 % of control
[11]
  T/C: 105 % of control
